This is an account of results in ChEMBL document CHEMBL1145498, “A systematic interaction map of validated kinase inhibitors with Ser/Thr kinases” (Proc Natl Acad Sci U S A, 2007).

Experiment [1] concerns the target Epidermal growth factor receptor (Homo sapiens, UniProt P00533).
Experiment [2] addresses Dual specificity protein kinase CLK4 (Mus musculus, UniProt O35493). In words: Inhibition of mouse Clk4.
A short description of experiment [3]: Agonist activity at yeast aryl hydrocarbon receptor. It counts as functional, Saccharomyces cerevisiae.
A short description of experiment [4]: Inhibition of Cdk2/cyclin B.
The target in experiment [5] is RAF proto-oncogene serine/threonine-protein kinase (Homo sapiens, UniProt P04049). In words: Inhibition of Raf1.
Chain of RAF proto-oncogene serine/threonine-protein kinase (P04049 whole entry): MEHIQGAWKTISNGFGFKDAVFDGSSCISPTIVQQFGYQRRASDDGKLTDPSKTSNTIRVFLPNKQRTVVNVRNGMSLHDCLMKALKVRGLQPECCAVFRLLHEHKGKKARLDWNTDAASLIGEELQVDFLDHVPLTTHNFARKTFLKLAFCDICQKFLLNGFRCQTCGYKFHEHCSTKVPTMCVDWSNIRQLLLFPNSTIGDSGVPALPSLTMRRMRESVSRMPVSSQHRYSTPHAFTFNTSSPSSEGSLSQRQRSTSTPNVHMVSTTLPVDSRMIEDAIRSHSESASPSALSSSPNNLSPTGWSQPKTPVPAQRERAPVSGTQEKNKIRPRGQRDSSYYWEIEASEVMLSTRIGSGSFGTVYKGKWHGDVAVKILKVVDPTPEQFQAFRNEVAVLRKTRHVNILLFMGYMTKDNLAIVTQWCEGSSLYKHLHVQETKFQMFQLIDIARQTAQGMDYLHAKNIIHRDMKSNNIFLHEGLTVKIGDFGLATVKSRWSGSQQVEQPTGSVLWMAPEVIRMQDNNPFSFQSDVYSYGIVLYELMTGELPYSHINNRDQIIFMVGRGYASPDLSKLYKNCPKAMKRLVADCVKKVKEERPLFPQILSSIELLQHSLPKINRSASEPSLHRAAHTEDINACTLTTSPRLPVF
Experiment [6] has as its target Mitogen-activated protein kinase kinase kinase 8 (Homo sapiens, UniProt P41279). In words: Inhibition of Tpl2 kinase.
Experiment [7] in a line: Inhibition of NS3-associated HCV viral helicase activity using RNA substrate. The arrangement: species or system Hepacivirus hominis.
A short description of experiment [8]: Inhibition of JNK.
The next experiment deals with Transcription factor Jun (Homo sapiens, UniProt P05412). In words: Inhibition of AP1 activity.
Experiment [9] can be described thus: Inhibition of p34cdc2/cyclin B.
The nature of experiment [10]: Inhibition of GSK3.
The target in experiment [11] is Hepatocyte growth factor receptor (Homo sapiens, UniProt P08581). In words: Inhibition of Met kinase.
Chain of Hepatocyte growth factor receptor (P08581 whole entry): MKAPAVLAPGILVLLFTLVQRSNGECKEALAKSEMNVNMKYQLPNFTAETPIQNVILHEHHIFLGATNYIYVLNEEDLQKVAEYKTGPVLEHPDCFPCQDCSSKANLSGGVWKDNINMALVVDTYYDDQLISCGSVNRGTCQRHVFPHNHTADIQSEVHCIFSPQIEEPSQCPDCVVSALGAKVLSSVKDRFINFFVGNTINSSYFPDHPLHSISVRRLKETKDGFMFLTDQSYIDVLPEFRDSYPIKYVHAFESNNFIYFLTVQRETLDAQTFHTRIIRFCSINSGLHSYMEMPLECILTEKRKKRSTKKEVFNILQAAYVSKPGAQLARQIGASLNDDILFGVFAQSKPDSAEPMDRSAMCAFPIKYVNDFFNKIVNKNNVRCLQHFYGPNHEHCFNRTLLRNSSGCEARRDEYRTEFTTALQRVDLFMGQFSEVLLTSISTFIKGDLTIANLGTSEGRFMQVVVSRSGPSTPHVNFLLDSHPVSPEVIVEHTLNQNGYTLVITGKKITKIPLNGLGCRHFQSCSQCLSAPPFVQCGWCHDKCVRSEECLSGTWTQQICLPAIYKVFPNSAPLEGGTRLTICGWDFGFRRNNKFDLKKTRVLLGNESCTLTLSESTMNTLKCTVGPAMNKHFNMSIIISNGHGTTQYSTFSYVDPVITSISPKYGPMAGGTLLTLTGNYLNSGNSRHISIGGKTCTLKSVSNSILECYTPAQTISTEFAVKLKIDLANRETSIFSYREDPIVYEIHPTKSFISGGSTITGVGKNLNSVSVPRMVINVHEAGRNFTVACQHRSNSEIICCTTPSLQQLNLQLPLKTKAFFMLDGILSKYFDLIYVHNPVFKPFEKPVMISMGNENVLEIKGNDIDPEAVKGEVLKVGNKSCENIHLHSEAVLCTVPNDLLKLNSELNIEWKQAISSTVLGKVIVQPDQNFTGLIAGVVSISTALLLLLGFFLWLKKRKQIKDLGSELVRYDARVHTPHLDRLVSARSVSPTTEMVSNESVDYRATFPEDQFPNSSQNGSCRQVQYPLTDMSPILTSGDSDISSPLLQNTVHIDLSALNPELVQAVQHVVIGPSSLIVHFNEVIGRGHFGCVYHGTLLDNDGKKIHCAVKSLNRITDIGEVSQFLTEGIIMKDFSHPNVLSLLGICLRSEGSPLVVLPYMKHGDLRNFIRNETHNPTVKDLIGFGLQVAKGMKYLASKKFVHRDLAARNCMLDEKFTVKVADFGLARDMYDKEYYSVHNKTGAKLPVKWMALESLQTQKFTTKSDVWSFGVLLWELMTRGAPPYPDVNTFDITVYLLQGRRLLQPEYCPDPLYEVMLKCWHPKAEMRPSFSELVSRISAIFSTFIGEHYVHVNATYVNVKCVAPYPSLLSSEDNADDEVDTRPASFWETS
Experiment [12] addresses Platelet-derived growth factor receptor alpha (Homo sapiens, UniProt P16234). In words: Inhibition of PDGFRalpha.
Experiment [13] deals with Cyclin-dependent kinase 7 (Homo sapiens, UniProt P50613). In words: Inhibition of Cdk7.
The nature of experiment [14]: Inhibition of VEGFR.
In experiment [15] the target is T1, Cyclin-dependent kinase 1 (Homo sapiens, UniProt P06493). In words: Inhibition of Cdk1.
T1 sequence (P06493 whole entry): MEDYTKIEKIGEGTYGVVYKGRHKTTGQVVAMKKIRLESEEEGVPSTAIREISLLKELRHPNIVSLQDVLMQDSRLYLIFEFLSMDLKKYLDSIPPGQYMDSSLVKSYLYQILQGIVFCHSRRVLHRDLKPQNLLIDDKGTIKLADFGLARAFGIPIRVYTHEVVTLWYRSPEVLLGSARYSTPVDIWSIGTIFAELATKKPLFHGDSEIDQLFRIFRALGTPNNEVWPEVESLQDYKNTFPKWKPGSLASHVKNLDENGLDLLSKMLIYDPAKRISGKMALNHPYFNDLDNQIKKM
Experiment [16] has as its target Casein kinase II subunit alpha (Homo sapiens, UniProt P68400). In words: Inhibition of CK2.
Another experiment deals with NT2. In words: Cell cycle arrest in human NT2 cells assessed as accumulation at G1 phase. It counts as functional, cell-based.
The nature of experiment [17]: Inhibition of diacylglycerol kinase in isolated platelet membrane. It counts as cell membranes.
The nature of experiment [18]: Inhibition of Cdk9/cyclin T1.
Experiment [19] in a line: Inhibition of MAPK.
Another experiment is filed under the species Mus musculus. In words: Inhibition of LPS-stimulated TNFalpha release in mouse. It counts as functional.
Another experiment relates to Jurkat. In words: Inhibition of serum-induced proliferation in human Jurkat cells. It counts as functional, cell-based.
The next experiment deals with Angiopoietin-1 receptor (Homo sapiens, UniProt Q02763). In words: Inhibition of Tie2.
Experiment [20] addresses Membrane-associated tyrosine- and threonine-specific cdc2-inhibitory kinase (Homo sapiens, UniProt Q99640). In words: Inhibition of Myt1.
The test system of another experiment is HUVEC. In words: Inhibition of serum-induced proliferation in HUVEC. Particulars: Homo sapiens. It counts as functional, cell-based.
The target in experiment [21] is Fibroblast growth factor receptor 1 (Homo sapiens, UniProt P11362). In words: Inhibition of FGFR1.
Chain of Fibroblast growth factor receptor 1 (P11362 whole entry): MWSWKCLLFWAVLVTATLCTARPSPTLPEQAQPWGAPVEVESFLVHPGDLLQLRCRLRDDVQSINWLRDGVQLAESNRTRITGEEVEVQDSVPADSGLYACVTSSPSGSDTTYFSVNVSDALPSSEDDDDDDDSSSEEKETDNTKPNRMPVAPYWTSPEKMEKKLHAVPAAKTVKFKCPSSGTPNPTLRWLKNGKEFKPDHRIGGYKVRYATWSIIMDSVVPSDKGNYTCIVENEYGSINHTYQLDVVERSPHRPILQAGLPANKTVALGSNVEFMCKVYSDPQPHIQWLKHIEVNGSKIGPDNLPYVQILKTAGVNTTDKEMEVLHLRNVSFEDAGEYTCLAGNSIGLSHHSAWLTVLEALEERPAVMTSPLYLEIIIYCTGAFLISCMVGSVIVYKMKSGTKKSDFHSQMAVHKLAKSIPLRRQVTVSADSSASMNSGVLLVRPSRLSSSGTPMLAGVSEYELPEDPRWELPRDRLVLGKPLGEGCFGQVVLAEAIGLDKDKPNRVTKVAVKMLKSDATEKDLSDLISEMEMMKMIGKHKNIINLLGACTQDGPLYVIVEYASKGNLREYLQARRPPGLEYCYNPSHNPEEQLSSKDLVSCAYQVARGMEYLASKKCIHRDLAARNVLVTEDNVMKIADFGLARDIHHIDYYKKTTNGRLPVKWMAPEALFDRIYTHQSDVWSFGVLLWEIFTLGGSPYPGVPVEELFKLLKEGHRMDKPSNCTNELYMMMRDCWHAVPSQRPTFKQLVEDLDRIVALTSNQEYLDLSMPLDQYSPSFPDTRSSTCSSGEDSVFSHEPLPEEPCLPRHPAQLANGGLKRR
For experiment [22], the target named is Cyclin-dependent kinase 7/ cyclin H (Homo sapiens, UniProt P50613). In words: Inhibition of Cdk7/H/MAT1. It counts as protein-complex assay.
Experiment [23] has as its target Casein kinase I isoform alpha (Homo sapiens, UniProt P48729). In words: Inhibition of CK1a1.
Experiment [24] deals with T1, Cyclin-dependent kinase 1. In words: Inhibition of p34cdc2.
The target of experiment [25] is Casein kinase I isoform epsilon (Homo sapiens, UniProt P49674). In words: Inhibition of CK1epsilon.
Chain of Casein kinase I isoform epsilon (P49674 whole entry, canonical isoform): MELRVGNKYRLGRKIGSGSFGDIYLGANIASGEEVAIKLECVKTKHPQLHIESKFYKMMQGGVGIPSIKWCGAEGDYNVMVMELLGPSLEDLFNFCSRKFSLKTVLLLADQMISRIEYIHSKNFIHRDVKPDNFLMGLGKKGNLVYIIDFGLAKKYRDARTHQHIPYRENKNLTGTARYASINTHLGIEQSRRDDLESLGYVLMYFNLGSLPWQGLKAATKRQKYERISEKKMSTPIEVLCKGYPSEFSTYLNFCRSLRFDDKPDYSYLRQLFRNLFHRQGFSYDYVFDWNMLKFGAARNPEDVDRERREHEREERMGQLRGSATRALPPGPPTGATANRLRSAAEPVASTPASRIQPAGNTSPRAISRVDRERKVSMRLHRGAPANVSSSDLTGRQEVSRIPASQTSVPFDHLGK
Experiment [26] concerns the target Casein kinase I isoform delta (Homo sapiens, UniProt P48730).
Assay in experiment [27]: not given
This is another data set of the same source.

Experiment [28] has as its target Inhibitor of nuclear factor kappa-B kinase subunit beta (Homo sapiens, UniProt O14920). In words: Inhibition of IKK-beta.

SMILES strings stand for the structures. Active and inactive are the calls of the source. No cut-off for these calls is given here. Some results are limits rather than exact numbers.

Chain of Mitogen-activated protein kinase kinase kinase 8 (P41279 whole entry): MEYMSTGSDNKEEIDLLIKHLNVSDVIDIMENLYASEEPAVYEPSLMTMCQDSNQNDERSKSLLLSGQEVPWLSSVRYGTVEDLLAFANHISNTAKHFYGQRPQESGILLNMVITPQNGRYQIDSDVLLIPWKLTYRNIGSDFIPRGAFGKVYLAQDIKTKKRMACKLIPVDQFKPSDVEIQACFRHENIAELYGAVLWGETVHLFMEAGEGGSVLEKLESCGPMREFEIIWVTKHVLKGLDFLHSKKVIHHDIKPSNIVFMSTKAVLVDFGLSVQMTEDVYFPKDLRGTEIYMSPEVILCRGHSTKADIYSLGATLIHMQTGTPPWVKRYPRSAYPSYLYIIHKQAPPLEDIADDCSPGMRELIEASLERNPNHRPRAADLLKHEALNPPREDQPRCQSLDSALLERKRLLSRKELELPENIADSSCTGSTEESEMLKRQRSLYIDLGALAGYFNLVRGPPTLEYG
Chain of Casein kinase II subunit alpha (P68400 whole entry): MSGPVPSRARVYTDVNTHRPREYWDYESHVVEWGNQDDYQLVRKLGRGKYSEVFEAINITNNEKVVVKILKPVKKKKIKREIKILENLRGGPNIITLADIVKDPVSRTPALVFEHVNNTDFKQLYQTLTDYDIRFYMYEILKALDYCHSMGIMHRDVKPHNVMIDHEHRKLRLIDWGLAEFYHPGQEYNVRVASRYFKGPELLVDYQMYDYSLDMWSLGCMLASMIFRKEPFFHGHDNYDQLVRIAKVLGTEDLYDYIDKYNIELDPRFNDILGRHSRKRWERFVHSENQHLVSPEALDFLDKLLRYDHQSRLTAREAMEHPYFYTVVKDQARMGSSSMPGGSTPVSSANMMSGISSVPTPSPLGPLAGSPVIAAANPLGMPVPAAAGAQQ
Chain of Casein kinase I isoform delta (P48730 whole entry, canonical isoform): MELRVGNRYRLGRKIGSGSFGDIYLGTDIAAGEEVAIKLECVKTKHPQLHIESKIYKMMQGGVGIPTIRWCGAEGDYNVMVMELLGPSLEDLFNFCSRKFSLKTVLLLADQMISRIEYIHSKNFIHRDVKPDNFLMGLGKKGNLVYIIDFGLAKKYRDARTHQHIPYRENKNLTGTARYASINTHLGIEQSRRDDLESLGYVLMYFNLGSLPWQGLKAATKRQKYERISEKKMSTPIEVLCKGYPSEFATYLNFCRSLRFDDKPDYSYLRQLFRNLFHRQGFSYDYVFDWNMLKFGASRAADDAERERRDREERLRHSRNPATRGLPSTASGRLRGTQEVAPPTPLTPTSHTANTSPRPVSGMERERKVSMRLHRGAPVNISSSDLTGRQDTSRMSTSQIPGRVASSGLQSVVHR

Take `CCN(CC)CCNC(=O)c1c(C)[nH]c(/C=C2\C(=O)Nc3ccc(Cl)cc32)c1C` [SU-11652]: the IC50 in experiment [1] is > 20 µM.

In turn, `CCN1/C(=C/C(C)=O)Sc2ccc(OC)cc21` gave a half-inhibitory concentration (IC50) in experiment [2] of 0.015 µM.

Regarding `CC(=O)O/N=C1/C(=C2/C(=O)Nc3cc(Br)ccc32)Nc2ccccc21` [6-BROMOINDIRUBIN-3'-ACETOXIME], the EC50 in [3] was ≥ 0.1 µM. The same compound had an IC50 in [4] of 63 µM.

As for `O=C1C(Cl)=C(N2C(=O)CCC2=O)C(=O)c2ccccc21`, the IC50 in experiment [5] turned out to be 34.5 µM; in [6] it was 0.05 µM.

For `N#C/C(=C(/N)Sc1ccc(N)cc1)c1ccccc1C(F)(F)F`, the IC50 was 0.18 µM in [7], > 10 µM in experiment [8] and 2.03 µM against Transcription factor Jun.

In [9], `CN(C)c1ncnc2nc[nH]c12` [DIMETHYLADENINE] had an IC50 of 300 µM.

`Cc1cc(Nc2nc(-c3ccccc3)nc3ccccc23)n[nH]1` displayed a Ki in [10] of 0.024 µM. This lies in the double-digit nanomolar range.

As for `Brc1c(Br)c(Br)c2[nH]nnc2c1Br` [TETRABROMOBENZOTRIAZOLE], in experiment [7], the half-maximal inhibitory concentration (IC50) came out at 60 µM.

For `Cc1[nH]c(/C=C2\C(=O)Nc3ccc(S(=O)(=O)N(C)c4cccc(Cl)c4)cc32)c(C)c1C(=O)N1CCN(C)CC1`, in experiment [11], half-maximal inhibition (IC50) required 0.02 µM.

In [12], `CCCNC(=O)Nc1ccc(Oc2ncnc3cc(OC)c(OC)cc23)cc1Cl` [KRN-633] yielded an IC50 of 0.97 µM.

`COc1cc2c(cc1OC)-c1n[nH]c(Nc3cccc(F)c3)c1C2`: the half-inhibitory concentration (IC50) in experiment [13] was > 10 µM; in experiment [14] it was 3.1 µM; in [15], > 10 µM.

Turning to `CCCCc1c(-c2ccc(O)cc2)[nH]c2nccnc12` [ALOISINE A], the IC50 in experiment [16] is ≥ 100 µM; in experiment [10], 0.5 µM; in experiment [8], 3 µM; in the experiment on NT2, 7 µM.

In experiment [17], `Cc1nc2sccn2c(=O)c1CCN1CCC(=C(c2ccccc2)c2ccc(F)cc2)CC1` returned an IC50 of 2.8 µM.

In turn, `Cc1nc(N)sc1-c1ccnc(Nc2cccc([N+](=O)[O-])c2)n1` gave a Ki in experiment [18] of 0.004 µM. This counts as single-digit nanomolar.

For the compound `Cn1cnc2c(NCc3ccccc3)nc(NCCO)nc21` [OLOMOUCINE], the IC50 in [19] came out at 25 µM.

For the compound `CSc1nc(-c2ccc(F)cc2)c(-c2ccnc(NC(C)c3ccccc3)c2)[nH]1` (racemic), in the experiment filed under Mus musculus, the 50% effect level (ED50) was put at a dose of 1.33 mg/kg.

Regarding `CN1CCc2[nH]c(=S)c(C#N)c(-c3cccs3)c2C1`, the IC50 in the experiment with Jurkat is < 8 µM; against Angiopoietin-1 receptor, > 10 µM; in [20] it was 1.2 µM; in the experiment on HUVEC, < 8 µM.

As to `CCOC(=O)c1c(C)[nH]c(/C=C2\C(=O)Nc3ccccc32)c1C`, the IC50 in experiment [21] came to 5 µM.

Regarding `CC(C)c1nn(-c2c(Cl)cccc2Cl)c2nc(Cc3ccc(OCCO)cc3)[nH]c(=O)c12`, half-maximal inhibition in experiment [22] (IC50) was put at 0.071 µM.

Turning to `COc1cc(OC)c(/C=C2\C(=O)Nc3ccccc32)c(OC)c1`, the IC50 is 11 µM in experiment [23], > 100 µM in experiment [24], 0.6 µM in experiment [25] and 0.7 µM in [26].

Turning to `O=c1c2ccccc2[nH]c(=S)n1CCN1CCC(=C(c2ccc(F)cc2)c2ccc(F)cc2)CC1` [DIACYLGLYCEROL KINASE INHIBITOR II], the IC50 in experiment [17] amounted to 0.3 µM.

With `CCOc1cc2ncnc(Nc3cccc(Br)c3)c2cc1OCC`, the IC50 in experiment [9] was 300 µM.

Consider `CCOC(=O)c1cnc2oc3ccc(O)cc3c2c1-c1ccccc1`, for which the result was Active. For the same compound, in [27], the result was Active.

The compound `O=C1NC(=O)c2c1c1c3ccccc3n3c1c1c2c2ccccc2n1C1CCC3O1` returned an IC50 in [24] of 0.25 µM.

Regarding `CN(c1cccnc1)c1cc2c(Nc3ccc(F)c(Cl)c3)c(C#N)cnc2cn1`, half-maximal inhibition in [6] (IC50) required 0.05 µM.

Take `COc1cc(O)c2c(c1)oc(=O)c1c3cc(O)c(O)cc3oc21` [WEDELOLACTONE]: the concentration for half-maximal inhibition (IC50) in [28] was > 10 µM.
